Each structure is given as a SMILES string.

Common to all, as to type: in vivo
Assay [1] deals with Alopercurus myosuroides (ALOMY). In words: greenhouse pre-emergence herbicidal test. The note with it: scale from 0 to 100. The text has this:
(§1) The culture containers used were plastic flowerpots containing loamy sand with approximately 3.0% of humus as the substrate. The seeds of the test plants were sown separately for each species.
(§2) For the pre-emergence treatment, the active ingredients, which had been suspended or emulsified in water, were applied directly after sowing by means of finely distributing nozzles. The containers were irrigated gently to promote germination and growth and subsequently covered with transparent plastic hoods until the test plants had rooted. This cover caused uniform germination of the test plants, unless this had been impaired by the active ingredients. For the post-emergence treatment, the test plants were first grown to a height of 3 to 15 cm, depending on the plant habit, and only then treated with the active ingredients which had been suspended or emulsified in water. For this purpose, the test plants were either shown directly and grown in the same containers, or they were first grown separately as seedlings and transplanted into the test containers a few days prior to treatment.
(§3) Depending on the species, the test plants were kept at 10-25° C. or 20-35° C., respectively. The test period extended over 2 to 4 weeks. During this time, the test plants were tended, and their response to the individual treatments was evaluated.
(§4) Evaluation was carried out using a scale from 0 to 100. 100 means no emergence of the test plants, or complete destruction of at least the aerial moieties, and 0 means no damage, or normal course of growth. A good herbicidal activity is given at values of 70 to <90 and a very good herbicidal activity is given at values of 90 to 100.
(§5) The test plants used in the greenhouse experiments were of the following species: […]

The subject of assay [2] is Lolium multiflorum (LOLMU). Briefly: greenhouse pre-emergence herbicidal test. The note with it: scale from 0 to 100.
Excerpt: as §1, §2, §3, §4, §5

The subject of assay [3] is Setaria viridis (SETVI). In words: greenhouse pre-emergence herbicidal test. The note with it: 0.250 kg/ha, scale from 0 to 100.
Excerpt: as §1, §2, §3, §4, §5

Assay [4] concerns Echinocloa crus-galli (ECHCG). In words: greenhouse post-emergence herbicidal test. The note with it: scale from 0 to 100.
Excerpt: as §1, §2, §3, §4, §5

Assay [5] has as its system Abutilon theophrasti (ABUTH). In words: greenhouse post-emergence herbicidal test. The note with it: 1.000 kg/ha, scale from 0 to 100.
Excerpt: as §1, §2, §3, §4, §5

Assay [6] concerns Apera spica-venti (APESV). In words: greenhouse pre-emergence herbicidal test. The note with it: scale from 0 to 100, read-out: herbicidal activity against APESV; for pest or weed control at 250 g/ha: 0.250 kg/ha; for pest or weed control at 500 g/ha: 0.500 kg/ha.
Excerpt: as §1, §2, §3, §4, §5

The test system of another assay is Avena fatua (AVEFA). In words: greenhouse post-emergence herbicidal test. The note with it: for pest or weed control at 250 g/ha / pest or weed control at 500 g/ha: Avena fatua, scale from 0 to 100, read-out: herbicidal activity against AVEFA; for pest or weed control at 250 g/ha: 0.250 kg/ha; for pest or weed control at 500 g/ha: 0.500 kg/ha.
Excerpt: as §1, §2, §3, §4, §5

Assay [7] deals with Abutilon theophrasti (ABUTH). Briefly: greenhouse pre-emergence herbicidal test. The note with it: 0.500 kg/ha, scale from 0 to 100.
Excerpt: as §1, §2, §3, §4, §5

In assay [8] the test system is Echinocloa crus-galli (ECHCG). Briefly: greenhouse pre-emergence herbicidal test. The note with it: 0.500 kg/ha, scale from 0 to 100.
Excerpt: as §1, §2, §3, §4, §5

A further assay concerns Setaria faberi (SETFA). Briefly: greenhouse pre-emergence herbicidal test. The note with it: scale from 0 to 100.
Excerpt: as §1, §2, §3, §4, §5

The subject of assay [9] is Setaria viridis (SETVI). Briefly: greenhouse post-emergence herbicidal test. The note with it: 0.0625 kg/ha, scale from 0 to 100.
Excerpt: as §1, §2, §3, §4, §5

Take `COC(=O)CC(C)NC(=O)C1(C(=O)Nc2cc(Cl)cc(Cl)c2)C=CCO1` (mixture of isomers) [I.25]: in assay [1] (0.0625 kg/ha), the “herbicidal activity against ALOMY” value is “good (A good herbicidal activity is given at values of 70 to <90)”. Moreover, the “herbicidal activity against LOLMU” value in assay [2] (0.0625 kg/ha) is on record as “very good (a very good herbicidal activity is given at values of 90 to 100)”. Consider `O=C([O-])C1C=CC(NC(=O)C2(C(=O)Nc3cc(Cl)cc(Cl)c3)C=CCO2)C1.[Na+]` (mixture of isomers) [I.201], for which the “herbicidal activity against SETVI” value in the assay on Setaria viridis (SETVI) [3] was “good (A good herbicidal activity is given at values of 70 to <90)”. In the case of `COC(=O)C1C=CC(NC(=O)C2(C(=O)Nc3cc(Cl)cc(Cl)c3)OC2(C)C)C1` (mixture of isomers) [I.220], the “herbicidal activity against ECHCG” value in [4] (0.500 kg/ha) is given as “good (A good herbicidal activity is given at values of 70 to <90)”. Take `Cn1nnnc1NC(=O)C1(C(=O)Nc2cc(F)c(F)c(F)c2)CCO1` (racemic) [I.5]: in [2] (0.250 kg/ha), the “herbicidal activity against LOLMU” value is listed as “very good (a very good herbicidal activity is given at values of 90 to 100)”. Consider `COC(=O)CC(C)NC(=O)C1(C(=O)Nc2cc(Cl)cc(Cl)c2)OCCO1` (racemic) [I.19], for which the “herbicidal activity against ABUTH” value in assay [5] is “good (A good herbicidal activity is given at values of 70 to <90)”. For `COC(=O)[C@@H]1C=C[C@H](NC(=O)C2(C(=O)Nc3cc(F)cc(F)c3)CCO2)C1` (stereo partly drawn) [Compound I1, methyl (1S,4R)-4-[[2-[(3,5-difluorophenyl)carbamoyl]oxetane-2-carbonyl]amino]cyclopent-2-ene-1-carboxylate], the pest or weed control at 250 g/ha (in assay [6]; in the assay with Avena fatua (AVEFA)) was 90 to 100% each time. Turning to `COC(=O)C[C@H](C)NC(=O)C1(C(=O)Nc2cc(F)cc(F)c2)CCO1` (stereo partly drawn) [Compound I2, methyl (3S)-3-[[2-[(3,5-difluorophenyl)carbamoyl]oxetane-2-carbonyl]amino]butanoate], in assay [6], the pest or weed control at 500 g/ha was in the range of 90 to 100%. For `COC(=O)[C@@H]1C=C[C@H](NC(=O)C2(C(=O)Nc3cc(Cl)cc(Cl)c3)CCO2)C1` (stereo partly drawn) [Compound I6, methyl (1S,4R)-4-[[2-[(3,5-dichlorophenyl)carbamoyl]oxetane-2-carbonyl]amino]cyclopent-2-ene-1-carboxylate], in assay [7], the “herbicidal activity against ABUTH” value was “very good (a very good herbicidal activity is given at values of 90 to 100)”. Moreover, the pest or weed control at 500 g/ha in assay [6] is 90 to 100%. On to `COC(=O)C[C@H](C)NC(=O)C1(C(=O)Nc2cc(Cl)cc(Cl)c2)CCO1` (stereo partly drawn) [Compound I7, methyl (3S)-3-[[2-[(3,5-dichlorophenyl)carbamoyl]oxetane-2-carbonyl]amino]butanoate], for which the pest or weed control at 500 g/ha (in assay [6]; in the assay on Avena fatua (AVEFA)) was 90 to 100% in each case. Turning to `COC(=O)[C@@H]1CC[C@H](NC(=O)C2(C(=O)Nc3cc(Cl)cc(Cl)c3)CCCO2)C1` (some centres unmarked) [Compound I15], the “herbicidal activity against ECHCG” value in assay [8] was “good (A good herbicidal activity is given at values of 70 to <90)”. Further, the “herbicidal activity against SETFA” value with Setaria faberi (SETFA) (0.500 kg/ha) is reported as “good (A good herbicidal activity is given at values of 70 to <90)”.

Consider `COC(=O)[C@@H]1C=C[C@H](NC(=O)C2(C(=O)Nc3cc(Cl)cc(Cl)c3)CCCO2)C1` (stereo partly drawn) [Compound I16, methyl (1S,4R)-4-[[2-[(3,5-dichlorophenyl)carbamoyl]tetrahydrofuran-2-carbonyl]amino]cyclopent-2-ene-1-carboxylate], for which the pest or weed control at 500 g/ha in [6] was in the range of 90 to 100%. For `COC(=O)CCCNC(=O)C1(C(=O)Nc2cc(Cl)cc(Cl)c2)CCCO1` (centres unmarked) [Compound I18, methyl 4-[[2-[(3,5-dichlorophenyl)carbamoyl]tetrahydrofuran-2-carbonyl]amino]butanoate], the pest or weed control at 500 g/ha in assay [6] was in the range of 90 to 100%; in the assay on Avena fatua (AVEFA), 70 to 90%. Turning to `COC(=O)[C@@H]1C=C[C@H](NC(=O)C2(C(=O)Nc3cc(Cl)cc(Cl)c3)C=CCO2)C1` (stereo partly drawn) [Compound I24, methyl (1S,4R)-4-[[5-[(3,5-dichlorophenyl)carbamoyl]-2H-furan-5-carbonyl]amino]cyclopent-2-ene-1-carboxylate], the “herbicidal activity against ALOMY” value in assay [1] (0.250 kg/ha) is recorded as “very good (a very good herbicidal activity is given at values of 90 to 100)”. Also, the pest or weed control at 250 g/ha with Avena fatua (AVEFA) fell in the range of 90 to 100%. Regarding `COC(=O)[C@@H]1C=C[C@H](NC(=O)C2(C(=O)Nc3cc(Cl)cc(Cl)c3)C=CCO2)C1` (stereo partly drawn) [Compound I183, methyl (1S,4R)-4-[[5-[(3,5-dichlorophenyl)carbamoyl]-2H-furan-5-carbonyl]amino]cyclopent-2-ene-1-carboxylate], in assay [6] (0.125 kg/ha), the pest or weed control at 125 g/ha was 70 to 90%. As for `COC(=O)[C@@H]1C=C[C@H](NC(=O)C2(C(=O)Nc3cc(Cl)cc(Cl)c3)C=CCO2)C1` (stereo partly drawn) [Compound I184, methyl (1S,4R)-4-[[5-[(3,5-dichlorophenyl)carbamoyl]-2H-furan-5-carbonyl]amino]cyclopent-2-ene-1-carboxylate], in [6], the pest or weed control at 250 g/ha fell in the range of 90 to 100%. Regarding `COC(=O)C[C@H](C)NC(=O)C1(C(=O)Nc2cc(Cl)cc(Cl)c2)CCCO1` (stereo partly drawn) [I.17, methyl (3S)-3-[[2-[(3,5-dichlorophenyl)carbamoyl]tetrahydrofuran-2-carbonyl]amino]butanoate], the pest or weed control at 500 g/ha lay within 90 to 100% in [6] and 70 to 90% with Avena fatua (AVEFA). Regarding `COC(=O)[C@@H]1C=C[C@H](NC(=O)C2(C(=O)Nc3cc(Cl)cc(Cl)c3)OCCS2)C1` (stereo partly drawn) [I.20, methyl (1S,4R)-4-[[2-[(3,5-dichlorophenyl)carbamoyl]-1,3-oxathiolane-2-carbonyl]amino]cyclopent-2-ene-1-carboxylate], the pest or weed control at 250 g/ha lay in the range of 70 to 90% in [6] and 90 to 100% in the assay with Avena fatua (AVEFA). Taken in the same sequence, the figures for `COC(=O)CC[C@H](C)NC(=O)C1(C(=O)Nc2cc(Cl)cc(Cl)c2)OCCS1` (stereo partly drawn) [I.21, methyl (4S)-4-[[2-[(3,5-dichlorophenyl)carbamoyl]-1,3-oxathiolane-2-carbonyl]amino]pentanoate] were 90 to 100% and 90 to 100%. Consider `COC(=O)CCCNC(=O)C1(C(=O)Nc2cc(Cl)cc(Cl)c2)COCO1` (centres unmarked) [I.23, methyl 4-[[4-[(3,5-dichlorophenyl)carbamoyl]-1,3-dioxolane-4-carbonyl]amino]butanoate], for which the pest or weed control at 500 g/ha in the assay on Avena fatua (AVEFA) lay in the range of 70 to 90%. Take `O=C(O)CCCNC(=O)C1(C(=O)Nc2cc(F)cc(F)c2)CCO1` (centres unmarked) [I.126]: the “herbicidal activity against SETVI” value with Setaria viridis (SETVI) [9] is on record as “good (A good herbicidal activity is given at values of 70 to <90)”. As to `CS(=O)(=O)CCOC(=O)CCCNC(=O)C1(C(=O)Nc2cc(F)cc(F)c2)CCO1` (centres unmarked) [I.130], the “herbicidal activity against AVEFA” value with Avena fatua (AVEFA) (0.0625 kg/ha, scale from 0 to 100) is given as “good (A good herbicidal activity is given at values of 70 to <90)”.

Consider `CC(C)OC(=O)C1C=CC(NC(=O)C2(C(=O)Nc3cc(F)c(F)c(F)c3)CCO2)C1` (centres unmarked) [I.133], for which, in assay [1] (0.13128 kg/ha), the “herbicidal activity against ALOMY” value was “very good (a very good herbicidal activity is given at values of 90 to 100)”. In addition, the “herbicidal activity against LOLMU” value in assay [2] (0.13128 kg/ha) is listed as “very good (a very good herbicidal activity is given at values of 90 to 100)”. Further, the “herbicidal activity against SETFA” value in the assay on Setaria faberi (SETFA) (0.13128 kg/ha) was “very good (a very good herbicidal activity is given at values of 90 to 100)”. For `CC(C)OC(=O)C1C=CC(NC(=O)C2(C(=O)Nc3cccc(OC(F)(F)F)c3)CCO2)C1` (centres unmarked) [I.134], the “herbicidal activity against ECHCG” value in [4] (0.0625 kg/ha) is “very good (a very good herbicidal activity is given at values of 90 to 100)”.

The values are drawn from patent publication US20230406833A1, “HERBICIDAL MALONAMIDES” (BASF SE, priority 2020, published 2023).
